Patent US20230078764A1 (Yumanity Therapeutics, Inc., priority 2019, published 2023)

How the values were obtained:
human SCD1 = molecular target: T1, human SCD1 (Homo sapiens, UniProt O00767); experiment: Growth inhibition of yeast strain expressing human SCD1 as sole desaturase (OLE1 deleted), OD600 readout; type: cell-based; conditions: yeast strain expressing human SCD1 as sole desaturase; growth (OD600) after 40 h at 30° C.; read-out: SCD1 IC50
T1 construct: expressed in transfected cells; host or cells: yeast strain with OLE1 deleted, plasmid-borne human SCD1 (selected in SD-Ura)
T1 sequence (O00767 1-359): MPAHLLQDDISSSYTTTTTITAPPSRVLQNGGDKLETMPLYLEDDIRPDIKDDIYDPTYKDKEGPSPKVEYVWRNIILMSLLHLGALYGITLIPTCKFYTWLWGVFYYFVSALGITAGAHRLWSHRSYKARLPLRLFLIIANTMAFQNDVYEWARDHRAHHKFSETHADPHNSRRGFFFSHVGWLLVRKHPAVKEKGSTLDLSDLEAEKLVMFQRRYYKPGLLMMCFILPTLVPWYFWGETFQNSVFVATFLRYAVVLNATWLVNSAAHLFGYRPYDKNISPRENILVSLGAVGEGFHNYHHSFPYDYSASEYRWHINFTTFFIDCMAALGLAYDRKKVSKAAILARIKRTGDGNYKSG

human SCD5 = molecular target: T2, human SCD5 (Homo sapiens, UniProt Q86SK9); experiment: Growth inhibition of yeast strain expressing human SCD5 as sole desaturase (OLE1 deleted), OD600 readout; type: cell-based; conditions: yeast strain expressing human SCD5 as sole desaturase; growth (OD600) after 40 h at 30° C.; read-out: SCD5 IC50
T2 construct: expressed in transfected cells; host or cells: yeast strain with OLE1 deleted, plasmid-borne human SCD5 (selected in SD-Ura)
T2 sequence (Q86SK9 1-330): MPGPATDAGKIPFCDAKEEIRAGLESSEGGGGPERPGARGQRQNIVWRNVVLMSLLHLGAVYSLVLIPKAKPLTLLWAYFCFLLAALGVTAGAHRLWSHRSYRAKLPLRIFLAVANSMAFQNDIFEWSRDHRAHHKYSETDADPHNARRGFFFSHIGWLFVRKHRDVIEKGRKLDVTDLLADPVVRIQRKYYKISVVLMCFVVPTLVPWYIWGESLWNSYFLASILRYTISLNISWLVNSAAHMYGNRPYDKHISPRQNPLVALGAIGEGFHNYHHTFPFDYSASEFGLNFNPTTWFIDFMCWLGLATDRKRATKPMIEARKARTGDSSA

IC50 (human SCD1) | IC50 (human SCD5) | Compound
> 45 µM | 0.054 µM | Cc1cc(C(=O)Nc2ccc(Cc3cccc(F)c3)cn2)c(=O)n(C)n1 [Compound 624]
4.8 µM | 0.31 µM | Cn1cc(NC(=O)c2ncc(Cc3ccc(F)c(F)c3)cc2F)ccc1=O [Compound 625]
> 45 µM | 0.014 µM | Cn1nc(C(=O)Nc2ccc(Cc3cc(Cl)cc(C#N)c3)cn2)ccc1=O [Compound 626]
0.327 µM | 0.01 µM | N#Cc1cnc(NC(=O)c2ccc(Cc3cccc(F)c3)cn2)nc1 [Compound 627]
0.19 µM | 0.03 µM | N#Cc1cc(F)cc(Cc2ccc(NC(=O)c3cncc(CO)c3)nc2)c1 [Compound 628]
3.3 µM | 0.25 µM | N#Cc1ccc(C(=O)Nc2ccc(Cc3cc(F)ccc3F)cn2)cn1 [Compound 629]
1.1 µM | 0.32 µM | Cn1ccc(C(=O)Nc2ccc(Cc3cc(F)ccc3F)cn2)cc1=O [Compound 630]
0.65 µM | 2.2 µM | O=C(Nc1ncc(Br)cn1)c1ccc(Cc2cccc(F)c2)cn1 [Compound 631]
> 45 µM | 0.07 µM | O=C(Nc1ccc(Cc2cccc(F)c2)cn1)c1csc(Br)n1 [Compound 632]
1.8 µM | 0.27 µM | O=C(Nc1ccc(Cc2cccc(F)c2)cn1)c1cscn1 [Compound 633]
> 45 µM | 0.28 µM | COc1cc(Cc2ccc(NC(=O)c3cnc(Cl)cn3)nc2)ccc1F [Compound 634]
> 45 µM | 0.062 µM | O=C(Nc1ccc(Cc2cc(F)cc(F)c2)cn1)c1cnc(Cl)cn1 [Compound 635]
> 45 µM | 0.142 µM | N#Cc1cnc(C(=O)Nc2ccc(Cc3cccc(F)c3)cn2)c(F)c1 [Compound 636]
12 µM | 8.1 µM | O=C(Nc1ccc(C=C2CCOCC2)cn1)c1ccc(CO)nc1 [Compound 637]
3.2 µM | 0.098 µM | COc1cc(Cc2ccc(NC(=O)c3cnc(C#N)cn3)nc2)ccc1F [Compound 638]
0.49 µM | 0.039 µM | N#Cc1cnc(C(=O)Nc2ccc(Cc3cc(F)cc(F)c3)cn2)cn1 [Compound 639]
3.2 µM | 1.3 µM | N#Cc1nc(C(=O)Nc2ccc(Cc3cccc(F)c3)cn2)cs1 [Compound 640]
> 45 µM | 0.54 µM | Cn1nc(C(=O)Nc2ccc(Cc3cc(C#N)ccc3F)cn2)ccc1=O [Compound 641]
0.092 µM | 0.01 µM | Cn1cc(C(=O)Nc2ccc(Cc3cccc(F)c3)cn2)n(C)c1=O [Compound 642]
0.072 µM | 0.01 µM | Cn1cc(C(=O)Nc2ccc(Cc3ccc(F)c(F)c3)cn2)n(C)c1=O [Compound 643]
0.042 µM | 0.01 µM | Cn1cc(C(=O)Nc2ccc(Cc3cc(F)cc(F)c3)cn2)n(C)c1=O [Compound 644]
1.3 µM | 0.21 µM | O=C(Nc1ccc(Cc2cccc(F)c2)cn1)c1coc(Cl)n1 [Compound 645]
> 45 µM | 0.14 µM | N#Cc1cc(F)cc(Cc2ccc(NC(=O)c3cnc(Cl)cn3)nc2)c1 [Compound 646]
9.3 µM | 2.4 µM | Cn1cc(C(=O)Nc2ccc(C3(c4ccc(F)c(F)c4)CC3)cn2)ccc1=O [Compound 647]
> 45 µM | 0.99 µM | Cn1cc(C(=O)Nc2ccc(Cc3cc(C#N)ccc3F)cn2)ccc1=O [Compound 648]
1.4 µM | 0.48 µM | COc1ncc(C(=O)Nc2ccc(Cc3cccc(Cl)c3)cn2)cn1 [Compound 649]
0.17 µM | 0.056 µM | O=C(Nc1ccc(Cc2ccc(F)c(F)c2)cn1)c1ccncc1 [Compound 650]
0.09 µM | 0.024 µM | O=C(Nc1ccc(Cc2cc(F)cc(F)c2)cn1)c1ccncc1 [Compound 651]
1.9 µM | 0.086 µM | Cn1cc(C(=O)Nc2ccc(Cc3cccc(Cl)c3)cn2)cnc1=O [Compound 652]
> 45 µM | 1.4 µM | Cn1nc(C(=O)Nc2ccc(C3(c4ccc(F)c(F)c4)CC3)cn2)ccc1=O [Compound 653]
